Results published in ChEMBL document CHEMBL2380201, “Synthesis, biological activity and resistance to proteolytic digestion of new cyclic dermorphin/deltorphin analogues” (Eur J Med Chem, 2013).
Activity calls are given as the source filed them. No cut-off for these calls is given here. Numbered stars: 1 amine (or outer) side, 2 acyl side, 3 side chain; on linkers, the order of the positions; unused ones are H or OH. Bridge positions count the residues as written; N and C are the ends. Square brackets hold non-standard residues; d marks the D form. Peptide text beside a SMILES is read from it. ξ: configuration not given here. Orn = NCCC[C@H](N)C(=O)O; Dap = NC[C@H](N)C(=O)O; ξOrn = NCCCC(N)C(=O)O; CO = O=C([*:1])[*:2]; ξDap = NCC(N)C(=O)O

Legend:
[1] = Proteolytic stability of the compound in ammonium bicarbonate buffer assessed as intact cyclic fragment at pH 8 at 10^-4 M after 2.5 hrs by ESI-MS spectrophotometry in presence […]; format: ADME; conditions: isolated protein, pH 8, 2.5 h, 100 µM
[2] = Proteolytic stability of the compound in ammonium bicarbonate buffer assessed as hydrolysis at pH 8 at 10^-4 M after 12 hrs by ESI-MS spectrophotometry in presence of chymotrypsin; format: ADME; conditions: isolated protein, pH 8, 12 h, 100 µM
Mus musculus [3] = assay: Antinociceptive activity in BALB/c mouse assessed as increase in paw withdrawal latency at 1 mg/kg, iv measured 30 mins post dose by hot plate test; format: functional, organism-based; design: dose 1 mg/kg
[4] = Proteolytic stability of the compound in ammonium bicarbonate buffer assessed as hydrolysis at pH 8 at 10^-4 M after 12 hrs by ESI-MS spectrophotometry in presence […]; format: ADME; conditions: isolated protein, pH 8, 12 h, 100 µM
Mus musculus [5] = assay: Antinociceptive activity in BALB/c mouse assessed as increase in paw withdrawal latency at 0.1 mg/kg, sc measured 30 mins post dose by hot plate test; format: functional, organism-based; design: dose 0.1 mg/kg
chymotrypsin = assay: Proteolytic stability of the compound in ammonium bicarbonate buffer assessed as hydrolysis at pH 8 at 10^-4 M after 1.5 hrs by ESI-MS spectrophotometry in presence of chymotrypsin; format: ADME; conditions: read-out: Drug degradation
Mus musculus [6] = assay: Antinociceptive activity in BALB/c mouse assessed as increase in paw withdrawal latency at 1 mg/kg, ip measured 30 mins post dose by hot plate test; format: functional, organism-based; design: dose 1 mg/kg
Mus musculus [7] = assay: Antinociceptive activity in BALB/c mouse at 4 mg/kg, iv up to 120 mins by tail flick test; format: functional, organism-based; design: dose 4 mg/kg
Mus musculus [8] = assay: Antinociceptive activity in BALB/c mouse at 0.5 mg/kg, iv measured 30 to 90 mins post dose by tail flick test relative to vehicle-treated control; format: functional
Mus musculus [9] = assay: Antinociceptive activity in BALB/c mouse at 1 mg/kg, iv measured 30 to 90 mins post dose by tail flick test relative to vehicle-treated control; format: functional
Mus musculus [10] = assay: Antinociceptive activity in BALB/c mouse at 2 mg/kg, iv measured 30 mins post dose by tail flick test relative to vehicle-treated control; format: functional
[11] = Proteolytic stability of the compound in ammonium bicarbonate buffer assessed as hydrolysis at pH 8 at 10^-4 M after 2.5 hrs by ESI-MS spectrophotometry in presence […]; format: ADME; conditions: isolated protein, pH 8, 2.5 h, 100 µM
[12] = Proteolytic stability of the compound in ammonium bicarbonate buffer assessed as hydrolysis at pH 8 at 10^-4 M after 20 mins to 12 hrs by ESI-MS spectrophotometry in presence of chymotrypsin; format: ADME; conditions: isolated protein, pH 8, 100 µM
Mus musculus [13] = assay: Antinociceptive activity in BALB/c mouse at 2 mg/kg, iv measured 15 to 180 mins post dose by tail flick test; format: functional, organism-based; design: dose 2 mg/kg
[14] = Proteolytic stability of the compound in ammonium bicarbonate buffer assessed as hydrolysis at pH 8 at 10^-4 M after 20 mins to 12 hrs by ESI-MS spectrophotometry in presence […]; format: ADME; conditions: isolated protein, pH 8, 100 µM
Mus musculus [15] = assay: Antinociceptive activity in iv dosed BALB/c mouse measured 15 to 180 mins post dose by tail flick test; format: functional, organism-based

Structure (SMILES): NC(=O)[C@@H]1CCCCNC(=O)NC[C@H](NC(=O)[C@@H](N)Cc2ccc(O)cc2)C(=O)N[C@@H](Cc2ccccc2)C(=O)N1 (H-Y[Dap]FK-NH2; linker 2-4 via CO)
- Stability [1]: 98%

Structure (SMILES): NC(=O)NCCNC(=O)[C@@H]1CNC(=O)NCCC[C@@H](NC(=O)[C@@H](N)Cc2ccc(O)cc2)C(=O)N[C@@H](Cc2ccccc2)C(=O)N1
- Stability [2]: Stable
- Activity (Mus musculus [3]): inactive
- Stability [4]: Stable
- Activity (Mus musculus [5]): inactive
- metabolised at 1.5 h, 100 µM (chymotrypsin): < 1%
- Activity (Mus musculus [6]): inactive

Structure (SMILES): CN1CC[C@]23c4c5ccc(O)c4O[C@H]2[C@@H](O)C=C[C@H]3[C@H]1C5 [MORPHINE]
- Activity (Mus musculus [7]): Active
- Activity (Mus musculus [8]): inactive
- Activity (Mus musculus [3]): inactive
- Activity (Mus musculus [9]): inactive
- MPE (Mus musculus [10]): 63.1%

Structure (SMILES): NC(=O)C1CNC(=O)NCCCC(NC(=O)[C@@H](N)Cc2ccc(O)cc2)C(=O)N[C@@H](Cc2ccccc2)C(=O)N1 (some centres undefined) (H-Y[ξOrn]F[ξDap]-NH2; linker 2-4 via CO)
- Stability [11]: Unstable

Structure (SMILES): NC(=O)NCCNC(=O)[C@@H]1CCNC(=O)NCCC[C@@H](NC(=O)[C@@H](N)Cc2ccc(O)cc2)C(=O)N[C@@H](Cc2ccccc2)C(=O)N1
- Stability [2]: Stable
- Activity (Mus musculus [3]): inactive
- Stability [4]: Stable
- Activity (Mus musculus [5]): inactive
- metabolised at 1.5 h, 100 µM (chymotrypsin): < 1%
- Activity (Mus musculus [6]): inactive

Structure (SMILES): NC(=O)NCCNC(=O)[C@@H]1CCCNC(=O)NCCC[C@@H](NC(=O)[C@@H](N)Cc2ccc(O)cc2)C(=O)N[C@@H](Cc2ccccc2)C(=O)N1
- Stability [2]: Stable
- Activity (Mus musculus [3]): inactive
- Stability [4]: Stable
- Activity (Mus musculus [5]): inactive
- metabolised at 1.5 h, 100 µM (chymotrypsin): < 1%
- Activity (Mus musculus [6]): inactive

Structure (SMILES): NC(=O)NCCNC(=O)[C@@H]1CCCCNC(=O)NCCC[C@@H](NC(=O)[C@@H](N)Cc2ccc(O)cc2)C(=O)N[C@@H](Cc2ccccc2)C(=O)N1
- Stability [2]: Stable
- Activity (Mus musculus [3]): inactive
- Stability [4]: Stable
- Activity (Mus musculus [5]): inactive
- metabolised at 1.5 h, 100 µM (chymotrypsin): < 1%
- Activity (Mus musculus [6]): inactive

Structure (SMILES): NC(=O)NCCNC(=O)[C@@H]1CCCCNC(=O)NCCCC[C@@H](NC(=O)[C@@H](N)Cc2ccc(O)cc2)C(=O)N[C@@H](Cc2ccccc2)C(=O)N1
- Stability [2]: Stable
- Activity (Mus musculus [3]): inactive
- Stability [4]: Stable
- Activity (Mus musculus [5]): inactive
- metabolised at 1.5 h, 100 µM (chymotrypsin): < 1%
- Activity (Mus musculus [6]): inactive

Structure (SMILES): NCCNC(=O)[C@@H]1CNC(=O)NCCCC[C@@H](NC(=O)[C@@H](N)Cc2ccc(O)cc2)C(=O)N[C@@H](Cc2ccccc2)C(=O)N1
- Stability [2]: Stable
- Activity (Mus musculus [3]): inactive
- Stability [4]: Stable
- Activity (Mus musculus [5]): inactive
- metabolised at 1.5 h, 100 µM (chymotrypsin): < 1%
- Activity (Mus musculus [6]): inactive

Structure (SMILES): CCNC(=O)[C@@H]1CCCNC(=O)NCCCC[C@@H](NC(=O)[C@@H](N)Cc2ccc(O)cc2)C(=O)N[C@@H](Cc2ccccc2)C(=O)N1
- Stability [2]: Stable
- Activity (Mus musculus [3]): inactive
- Stability [4]: Stable
- Activity (Mus musculus [5]): inactive
- metabolised at 1.5 h, 100 µM (chymotrypsin): < 1%
- Activity (Mus musculus [6]): inactive

Structure (SMILES): NC(=O)[C@@H]1CCCCNC(=O)NCCC[C@H](NC(=O)[C@@H](N)Cc2ccc(O)cc2)C(=O)N[C@@H](Cc2ccccc2)C(=O)N1 (H-Y[Orn]FK-NH2; linker 2-4 via CO)
- Stability [11]: Unstable

Structure (SMILES): NC(=O)[C@@H]1CNC(=O)NCCCC[C@H](NC(=O)[C@@H](N)Cc2ccc(O)cc2)C(=O)N[C@@H](Cc2ccccc2)C(=O)N1 (H-YKF[Dap]-NH2; linker 2-4 via CO)
- Stability [1]: 98%

Structure (SMILES): NC(=O)NCCNC(=O)[C@@H]1CCNC(=O)NCCCC[C@@H](NC(=O)[C@@H](N)Cc2ccc(O)cc2)C(=O)N[C@@H](Cc2ccccc2)C(=O)N1
- Activity (Mus musculus [7]): Active
- MPE (Mus musculus [8]): 41.8%
- Activity (Mus musculus [3]): Active
- MPE (Mus musculus [9]): 54.7%
- Stability [12]: Stable
- Activity (Mus musculus [5]): inactive
- Activity (Mus musculus [13]): Active
- metabolised at 1.5 h, 100 µM (chymotrypsin): < 1%
- Stability [14]: Stable
- Activity (Mus musculus [6]): inactive
- Activity (Mus musculus [15]): Dose-dependent effect

Structure (SMILES): NC(=O)NCCNC(=O)[C@@H]1CNC(=O)NCCCC[C@@H](NC(=O)[C@@H](N)Cc2ccc(O)cc2)C(=O)N[C@@H](Cc2ccccc2)C(=O)N1
- Stability [2]: Stable
- Activity (Mus musculus [3]): inactive
- Stability [4]: Stable
- Activity (Mus musculus [5]): inactive
- metabolised at 1.5 h, 100 µM (chymotrypsin): < 1%
- Activity (Mus musculus [6]): inactive

Structure (SMILES): NC(=O)NCCNC(=O)[C@@H]1CCCNC(=O)NCCCC[C@@H](NC(=O)[C@@H](N)Cc2ccc(O)cc2)C(=O)N[C@@H](Cc2ccccc2)C(=O)N1
- Stability [2]: Stable
- Activity (Mus musculus [3]): inactive
- Stability [4]: Stable
- Activity (Mus musculus [5]): inactive
- metabolised at 1.5 h, 100 µM (chymotrypsin): < 1%
- Activity (Mus musculus [6]): inactive
